Reference: paper PMC12081870 (Communications Biology, 2025)

Assays:
[1] = test system: Sla1 inhibition of Las17-mediated actin polymerisation; conditions: with Arp2/3; ref [24]; cited from earlier work
Description: As shown in vitro in Fig. 7D, the addition of activated Sec4 to pyrene assays does indeed rel ...

[2] = test system: Sla1 inhibition of Las17-mediated actin polymerisation; assay: Pyrene actin assay, alleviation of Sla1 inhibition of Las17-mediated actin polymerisation; format: biochemical; conditions: Arp2/3-independent, activated Sec4, Las17 300 nM, Sla1 SH3 1+2+3 300 nM, 3 µM actin
Method: Fluorometry assays were performed as described previously. 370 μl assays used 3 μM actin as indicated unless otherwise specified. Pyrene-actin was added to 5%, mixed thoroughly, and added to the fluorometry cuvette. Polymerization salts, 10× KME (500 mM KCl, 10 mM MgCl2, 10 mM EGTA, 100 mM Tris-HCl [pH 8.0]) were mixed with fragments or G buffer to give final concentration of 0.5× KME before reading fluorescence. […] Experiments were carried out three separate times with different protein preparations and a representative graph shown.
Liposome binding assays were carried out as described previously. To prepare liposomes 11 μl of a 25 mg/ml solution of Folch fraction-1 was dried under a nitrogen stream. They were washed in chloroform, dried under nitrogen, and further washed with diethyl ether to remove all traces of chloroform before being dried again. […] The pellets were resuspended in 50 µl buffer B and samples were analysed by SDS-PAGE. The proportion of protein in each sample was determined by densitometry of the Coomassie stained gels using a BioRad GelDoc. […] To normalise the data the amount of protein in the supernatant and pellet of each sample was added together to give a value for 100%, and then the % in either the supernatant or pellet alone was calculated. […]

Las17 = conditions: cell free extracts; ref [24]; cited from earlier work
Description: The model predicts an extensive interaction surface highlighted in red (Fig. 7E).

actin [3] = assay: TIRF assay, actin filament growth (elongation) rate; format: biochemical, rabbit; conditions: 0.5 µM actin, vs actin only
Method: (§1) Actin filament growth rate assays. Total Internal Reflection microscopy (TIRFm) was performed using a method modified from[58] using purified rabbit muscle actin and Alexa488 actin (Cytoskeleton, Inc) at a 4:1 ratio. Glass coverslips (Deckgläser) were cleaned using a modification of the method described. Briefly, coverslips were rinsed with gentle agitation in acetone (30 min), then water (5 min) then cleaned in Piranha solution (13 ml concentrated sulphuric acid and 6 ml hydrogen peroxide) for 90 min before rinsing with distilled water and ethanol, drying and coating with 1 mg/ml mPEG silane MW 2000 (Layssan Bio). TIRF reaction buffers 10× KMEI, GOC mixture, and methyl cellulose (400 cP, Sigma) were prepared in advance. 10× KMEI buffer (500 mM KCl, 100 mM Imidazole (pH 7.0), 10 mM MgCl2, 10 mM EGTA (pH 7.0)) was filtered through a sterile syringe-filter device (0.22 μm, Thermo Fisher Scientific) and stored at room temperature. GOC mixture was prepared by dissolving 20 mg of Catalase (Calbiochem) and 100 mg of Glucose-oxidase in 10 ml cold water. Undissolved particles were cleared by ultracentrifugation and 50 μl aliquots from the upper 90% of the supernatant were stored at −20 °C. 50 ml of 2% methyl cellulose was prepared by dissolving 1 g methylcellulose in 25 ml of Milli-Q water preheated to 65 °C, before adding 25 ml of room temperature water and rotating overnight at 4 °C. […]

[4] = test system: Las17-GFP and Arc15-mCherry; assay: Dual-reporter lifetimes, Las17-GFP and Arc15-mCherry co-localisation; format: cell-based, Saccharomyces cerevisiae; conditions: Las17-GFP / Arc15-mCherry dual-label strain
Method: A size bar for each set of kymographs is shown on the upper right of each set. For (A) and (C) size bar is 100 nm and for B is 200 nm. Error bars are standard deviation. […] The site of interest is labelled in the first two time panels with a white arrow. Exposure 0.5 sec with 1 second time lapse. 120 s recorded. […] Error bars are standard deviation.
Individual spots were analysed for lifetimes and behaviours.
Yeast strains used in this study are listed in Supplementary table 2 and plasmids used in Supplementary table 1. Unless stated otherwise, cells were grown with rotary shaking at 30 °C in liquid YPD medium (1% yeast extract, 2% Bacto-peptone, 2% glucose supplemented with 40 μg/ml adenine) or in synthetic medium (0.67% yeast nitrogen base, 2% glucose) with appropriate supplements. […] DNA cassettes carrying mutations for integration were transformed into KAY1801. Mutant colonies were counter-selected on minimal medium, containing 0.005% uracil and 0.1% 5’-Fluoroorotic Acid (5-FOA; Melford laboratories). Allele exchange, in growing Ura3^-, 5-FOA resistant colonies, was confirmed by PCR and sequencing.
For live-cell imaging, cells expressing tagged proteins were visualised after growing to early log phase. Analysis was carried out at room temperature (22 °C). […] Images were taken simultaneously on separate scientific complementary metal oxide semiconductor (sCMOS) cameras (30 msec exposure). Seven 250 nm sections were acquired every 0.5 sec (241 time points). The stacks were then deconvolved and processed, using SoftWorx. Protein localisation and lifetime was analysed from those projections. Fiji software was used to assemble movies and kymographs, to track and record behaviour of individual spots. Graphs show mean ± SD. […] Where appropriate data was tested for normal distribution using Graphpad Prism software, and then subjected to the appropriate test as described in the methods for each experiment type.

actin [5] = assay: TIRF assay, nucleation of actin filaments (filament number); format: biochemical, rabbit
Method: To assess how filaments generated in the presence or absence of Arp2/3 differ, a TIRF-based assay was used. Videos of representative assays are shown in Supplementary Videos 1, 2, 3 and combined in Supplementary Video 4.
as §1, with “water.” for “water. Undissolved particles were cleared by ultracentrifugation and 50 μl aliquots from the upper 90% of the supernatant were stored at −20 °C. 50 ml of 2% methyl cellulose was prepared by dissolving 1 g methylcellulose in 25 ml of Milli-Q water preheated to 65 °C, before adding 25 ml of room temperature water and rotating overnight at 4 °C.”

Substance	relief of Sla1-SH3 inhibition of Las17-Arp2/3-mediated actin nucleation [1]	relief of Sla1 inhibition of Las17-mediated actin polymerisation [2]	direct binding to Las17 (Las17)	effect on elongation rate of actin filaments (actin [3])	duration of co-localization of Las17-GFP and Arc15-mCherry [4]	time of Arc15-mCherry alone after Las17 disassembly [4]	time of Las17 at the site before Arc15 is recruited [4]	increase in nucleation rate compared to actin alone (actin [5])	number of filaments (actin [5]; 10 minute time point, 500 nM actin, 50 nM Las17, per unit area, errors are standard deviation, actin alone 16.3 ± 2.3)
Sec4: small GTPase Sec4 (full length)	alleviated Sla1-SH3 domain inhibition of Las17-Arp2/3-mediated actin nucleation	does indeed relieve inhibition of Las17-mediated actin polymerisation	could bind directly to Las17						
Las17: Las17 fragment; residues not stated for TIRF; in b194 Las17 300–422; in b52 full length Las17-GFP in cells				sufficient to increase the elongation rate of actin filaments	about 15 seconds	about 4 s	about 22 s	two-three fold	42.3 ± 7.0
